In patent publication US8158809B2 (priority 2003, dated 2012):

System: HCT116
Experiment: Cell colony formation assay
Format: cell-based
Details: 72 hours with drug, colonies counted after 7 days
Protocol: This example provides directions for growing cells and testing compounds of the invention for their effect on the growth of the cells. All cells were purchased from DCTDC Tumor Repository, NCI, NIH.
The cells were incubated in a CO2 incubator at 37° C. for 5 hours for attachment to the bottom of Petri dishes. Drugs were made fresh in medium at ten times the final concentration, and then 0.3 ml of this stock solution was added to the 2.7 ml of medium in the dish. The cells were then incubated with drugs for 72 hours at 37° C. At the end of the incubation the drug-containing media were decanted, the dishes were rinsed with 4 ml of Hank's Balance Salt Solution (HBSS), 5 ml of fresh medium was added, and the dishes were returned to the incubator for colony formation. The cell colonies were counted using colony counter after incubation for 7 days for HCT116 cells and PC-3 cells and 8 days for VM46 cells, respectively. Cell survival (%) was calculated, as shown in Table I below for HCT 116 cells.

SMILES | In Vitro Efficacy: Survival (%) of HCT116 (100 nM) | In Vitro Efficacy: Survival (%) of HCT116 (1000 nM) | In Vitro Efficacy: Survival (%) of HCT116 (10 nM) | In Vitro Efficacy: Survival (%) of HCT116 (1 nM)
COc1cc([C@@H]2c3cc4c(cc3[C@H](OC(=O)c3cc(C(=O)O[C@H]5c6cc7c(cc6[C@@H](c6cc(OC)c(OC)c(OC)c6)[C@H]6C(=O)OC[C@@H]65)OCO7)cc([N+](=O)[O-])c3)[C@H]3COC(=O)[C@H]23)OCO4)cc(OC)c1OC [Compound 000331, Bis(Podophyllotoxin-4-O-ester) of 5-nitroisophthalic acid] | 62.56% | 0% |  | 
COc1cc(C2c3cc4c(cc3C(OC(=O)COC3CC(C)CCC3C(C)C)C3COC(=O)C23)OCO4)cc(OC)c1OC (stereo not drawn) [Compound 000218, Podophyllotoxin-4-O-ester of (+)-menthoxyethanoic acid] | 44.28% | 0% |  | 
COc1cc(C2c3cc4c(cc3C(OC(=O)c3ccc5c(c3)C(=O)c3ccccc3C5=O)C3COC(=O)C23)OCO4)cc(OC)c1OC (stereo not shown) [Compound 000121, Podophyllotoxin-4-O-ester of anthraquinone-2-carboxylic acid] | 94.03% | 0% |  | 
COc1ccc(OCC(=O)OC2c3cc4c(cc3C(c3cc(OC)c(OC)c(OC)c3)C3C(=O)OCC23)OCO4)cc1 (stereo not shown) [Compound 000329, Podophyllotoxin-4-O-ester of 4-methoxyphenoxyacetic acid] | 0% | 0% | 100% | 
COc1cc(C2c3cc4c(cc3C(OC(=O)COc3ccc(C=O)cc3)C3COC(=O)C23)OCO4)cc(OC)c1OC (stereo not shown) [Compound 000323, Podophyllotoxin-4-O-ester of 4-formylphenoxyacetic acid] | 0% | 0% | 90.86% | 
COc1cc([C@@H]2c3cc4c(cc3[C@H](OC(=O)COc3ccc(Cl)cc3Cl)[C@H]3COC(=O)[C@H]23)OCO4)cc(OC)c1OC [Compound 000324, Podophyllotoxin-4-O-ester of 2,4-dichlorophenoxyacetic acid] | 0% | 0% | 100% | 
COc1cc([C@@H]2c3cc4c(cc3[C@H](OC(=O)c3cc(=O)c5ccccc5o3)[C@H]3COC(=O)[C@H]23)OCO4)cc(OC)c1OC [Compound 000215, Podophyllotoxin-4-O-ester of chromone-2-carboxylic acid] | 0% | 0% | 92.46% | 
CC[C@@]1(OC(=O)COc2ccc(C(=O)O[C@H]3c4cc5c(cc4[C@@H](c4cc(OC)c(OC)c(OC)c4)C4C(=O)OCC43)OCO5)cc2)C(=O)OCc2c1cc1n(c2=O)Cc2cc3ccccc3nc2-1 (stereo partly shown) [Compound 000801, Podophyllotoxin-4-O-ester of camptothecin-20-O-ester of 4-carboxylicphenoxyacetic acid] | 0% | 0% | 0% | 99.83%
COc1cc(C2c3cc4c(cc3C(OC(=O)C(NC(=O)OC(C)(C)C)C(C)c3ccccc3)C3COC(=O)C23)OCO4)cc(OC)c1OC [Compound 000307, Podophyllotoxin-4-O-ester of N—BOC-erythro-D-β-Methylphenylalanine] | 93.49% | 0% |  | 
COc1cc(C2c3cc4c(cc3C(OC(=O)c3ccc([N+](=O)[O-])o3)C3COC(=O)C23)OCO4)cc(OC)c1OC (stereo not shown) [Compound 000202, Podophyllotoxin-4-O-ester of 5-nitro-2-furoic acid] | 0% | 0% | 81.68% | 
COc1cc([C@@H]2c3cc4c(cc3[C@H](OC(=O)COc3ccc5c(C)c(Cl)c(=O)oc5c3)[C@H]3COC(=O)[C@H]23)OCO4)cc(OC)c1OC [Compound 000405, Podophyllotoxin-4-O-ester of 7-(carboxymethoxy)-3-chloro-4-methylcoumarin] | 0% | 0% | 90.45% | 
COc1cc([C@@H]2c3cc4c(cc3[C@H](OC(=O)[C@@H]3CCCN3C(=O)OC(C)(C)C)[C@H]3COC(=O)[C@H]23)OCO4)cc(OC)c1OC [Compound 000203, Podophyllotoxin-4-O-ester of N-(tert-Butoxycarbonyl)-L-proline] | 89.76% | 0% |  | 
COc1cc([C@@H]2c3cc4c(cc3[C@H](OC(=O)c3cccc(NC(=O)CCl)c3)[C@H]3COC(=O)[C@H]23)OCO4)cc(OC)c1OC [Compound 000124, Podophyllotoxin-4-O-ester of 3-chloroacetamidobenzoic acid] | 0% | 0% | 83.22% | 
COc1cc([C@@H]2c3cc4c(cc3[C@H](OC(=O)c3cncc(C(=O)O[C@H]5c6cc7c(cc6[C@@H](c6cc(OC)c(OC)c(OC)c6)[C@H]6C(=O)OC[C@@H]65)OCO7)c3)[C@H]3COC(=O)[C@H]23)OCO4)cc(OC)c1OC [Compound 000330, Bis(Podophyllotoxin-4-O-ester) of 3,5-Pyridinedicarboxylic acid] | 0% | 0% | 100% | 
COc1cc(C2c3cc4c(cc3C(OC(=O)C3Cc5ccccc5CN3C(=O)OC(C)(C)C)C3COC(=O)C23)OCO4)cc(OC)c1OC (stereo not shown) [Compound 000302, Podophyllotoxin-4-O-ester of N—BOC-1,2,3,4-Tetrahydroisoquinoline-3-carboxylic acid] | 100% | 0% |  | 
